Measurements as given in patent US8815266B2, “Peptide derivatives useful in the treatment, care or cleansing of the skin, mucosae, scalp or nails” (Lipotech, S.A., priority 2008, dated 2014).
Non-standard residues stand in square brackets, D forms with d. *: point of attachment. Palmitoyl = CCCCCCCCCCCCCCCC(=O)*; Ahx = NCCCCCC(=O)O

Tests used:
hBD2 promoter = assay: Activation of the hBD2 promoter (luciferase activity assay) in a stable A549 cell line; format: cell-based, human
Method: Assay of activation of the hBD2 promoter in a stable cell line by the compounds of general formula (I) obtained in Example 5.
The A549 human epithelial cell line was cultured using RPMI-1640 medium supplemented with FBS and Penicillin-Streptomycin. It was routinely cultured by dividing the cultures twice a week at a 1:10 dilution using Trypsin-EDTA. 10^6 cells of the A549 line were seeded in a 60 mm disc treated with polylysine. After 24 h they were cotransfected with 10 μg of a gene construct formed by the hBD2 gene promoter followed by the luciferase protein gene (pGL3-hBD2promotor-Luc), and the pcDNA3B plasmid DNA containing the geneticin antibiotic resistance gene, at a 1:5 pcDNA3B.1/pGL3-hBD2promotor-Luc ratio. 25 μL of Lipofectamine™ 2000 were used for the transfection. After 24 h the selection was started with complete medium supplemented with the G418-Geneticin® antibiotic, the selection medium being renewed every 2 days. Different clones were isolated, which were characterized and selected based on the luciferase activity.
The selected stable lines were cultured using complete medium for the parental line supplemented with G418. They were routinely cultured by dividing the cultures twice a week at a 1:10 dilution using Trypsin-EDTA.
The capacity to activate the hBD2 promoter was determined by means of the luciferase activity assay since a transcriptional agent inducing hBD2 synthesis causes luciferase enzyme production by means of activating the hBD2 gene promoter contained in the pGL3-hBD2promotor-Luc construct, a luminescence increase being observed. The selected stable cell lines were seeded at 20,000 cells per plate. After 24 h the plates were washed and incubated for 24 h in modified RPMI-1640 medium without L-Isoleucine with different peptide derivatives at a concentration of 0.5 mM. LPS (100 μg/mL) and L-Isoleucine (25 μg/mL) were used as positive controls with the same treatment as the peptide derivatives. Once the incubation period had ended, the Steady-Glo Luciferase Assay System reagent (Promega Corp.) was added to the cells, following the protocol of the commercial company. The luminescent signal (ULAs/s) produced by the reaction between the luciferase and its substrate was quantified with a LUMIstar Galaxy plate luminometer (BMG Labtechnologies). Based on the values of luciferase activity (ULAs/s), standardized with the negative controls, the activation of the hBD2 promoter was determined.

hBD2 = assay: Quantification of hBD2 secreted by human keratinocytes by ELISA; format: cell-based
Method: (§1) The quantification of the amount of mRNA secreted was carried out by means of a real-time quantitative RT-PCR assay. 3×10^6 cells of a human keratinocyte line were used, seeded in 25 cm^2 flasks. The cells were washed and incubated for 16 h-24 h with different peptide derivatives at a concentration of 1 mm or 0.25 mm in a volume of 3 mL of DMEM medium. LPS (100 μg/mL) and L-Ile (200 μg/mL) were used as positive controls. The supernatants of the cells were stored at −80° C., to analyze the secreted hBD2 protein level and the total RNA was extracted from the cells with the RNeasy kit (Quiagen) following the protocol of the commercial company.
Quantification of the hBD2 secreted in human keratinocytes after incubation with Ac-L-Glu-L-Met-L-Ala-L-Ile-OH (Ac-SEQ ID No. 3-OH), Ac-L-Arg-Phg-Phg-OH and Ac-L-Arg-Ahx-L-Ala-OH.
The amount of hBD2 secreted by human keratinocytes was quantified by means of an ELISA assay using the Human BD-2 ELISA Development commercial kit (Peprotech) from the supernatants of the cells coming from Example 15.
Based on the absorbance data obtained, the hBD2 protein level was calculated after the calibration with recombinant hBD2. The values of hBD2 obtained were standardized with respect to the values of the control assays (untreated cells).

hBD2 mRNA = assay: Quantification of hBD2 mRNA in human keratinocytes by real-time quantitative RT-PCR; format: cell-based; details: 16 h-24 h
Method: Quantification of the hBD2 mRNA secreted in human keratinocytes after incubation with Ac-L-Glu-L-Met-L-Ala-L-Ile-OH (Ac-SEQ ID No. 3-OH), Ac-L-Arg-Phg-Phg-OH and Ac-L-Arg-Ahx-L-Ala-OH.
as §1
A retrotranscription reaction was carried out in a Mastercycler thermal cycler from 1 μg of total RNA of each sample, using the GeneAmp RNA PCR kit (Applied Biosystems) according to the protocol of the commercial company, and subsequently a real-time PCR was carried out by means of the assay with the SYBR Green I fluorophore in an ABI PRIS M 7700 Sequence Detector (Applied Biosystems).
The amount of mRNA was quantified by standardizing normalizing it with respect to the values of endogenous 18S ribosomal RNA. These values were in turn standardized with respect to the untreated cells and they were represented as the relative hBD2 mRNA level.

[1] = peptide derivative 0.5 mM, 24 h incubation, A549 pGL3-hBD2promotor-Luc stable line, standardized with negative controls (CONTROL 100%)
[2] = 0.25 mm peptide, supernatants of human keratinocytes from Example 15, standardized to untreated cells (CONTROL 100%)
[3] = 0.25 mM peptide, normalized to 18S rRNA and untreated cells (CONTROL 100%)

| Compound | LUMINESCENCE INCREASE (hBD2 promoter; [1]) | Relative hBD2 level (hBD2; [2]) | Relative hBD2 mRNA level (hBD2 mRNA; [3]) | other results |
| --- | --- | --- | --- | --- |
| H-L-Glu-L-Met-L-Ala-L-Ile-OH (H-EMAI-OH) | 125% |  |  |  |
| CC[C@H](C)[C@H](N)C(=O)O [L-Ile, L-Isoleucine, reference compound] |  |  |  | Relative hBD2 level (hBD2; positive control L-Ile 200 μg/mL, keratinocyte supernatants, CONTROL 100%): 134%; LUMINESCENCE INCREASE (hBD2 promoter; positive control L-Isoleucine 25 μg/mL, 24 h, A549 stable line, CONTROL 100%): 127%; Relative hBD2 mRNA level (hBD2 mRNA; positive control L-Ile 200 μg/mL, CONTROL 100%): 125% |
| Palm-L-Glu-L-Met-L-Ala-L-Ile-NH2 (Palmitoyl-EMAI-NH2; SMILES CCCCCCCCCCCCCCCC(=O)N[C@@H](CCC(=O)O)C(=O)N[C@@H](CCSC)C(=O)N[C@@H](C)C(=O)N[C@H](C(N)=O)[C@@H](C)CC) | 137% |  |  |  |
| Ac-L-Glu-L-Met-L-Ala-L-Ile-OH (Ac-EMAI-OH) | 196% |  |  | Relative hBD2 level (hBD2; 1 mm peptide, supernatants of human keratinocytes from Example 15, standardized to untreated cells (CONTROL 100%)): 129%; Relative hBD2 mRNA level (hBD2 mRNA; 1 mm peptide, normalized to 18S rRNA and untreated cells (CONTROL 100%)): 323% |
| Ac-L-Arg-Phg-Phg-OH | 120% | 116% | 201% |  |
| Ac-Arg-[Ahx]-Ala-OH | 137% | 126% | 126% |  |
